Broadly, the Ki is a dissociation constant, usually derived from enzyme kinetics or from competition with a known ligand. The low end stands for a stronger hold on the target, the high end for a looser hold on the target.

Drawing on patent US5693805A, “Process to derivatives of piperizinylcamphorsulfonyl oxytocin antagonists” (Merck & Co., Inc., priority 1995, dated 1997), this text covers Ki for 1 molecule.

The experiment has as its target T1, uterine OT receptors (Rattus norvegicus, UniProt P70536).
T1 construct: from tissue; host or cells: uterus of DES-treated rats, crude membrane preparation
T1 sequence (P70536 1-388): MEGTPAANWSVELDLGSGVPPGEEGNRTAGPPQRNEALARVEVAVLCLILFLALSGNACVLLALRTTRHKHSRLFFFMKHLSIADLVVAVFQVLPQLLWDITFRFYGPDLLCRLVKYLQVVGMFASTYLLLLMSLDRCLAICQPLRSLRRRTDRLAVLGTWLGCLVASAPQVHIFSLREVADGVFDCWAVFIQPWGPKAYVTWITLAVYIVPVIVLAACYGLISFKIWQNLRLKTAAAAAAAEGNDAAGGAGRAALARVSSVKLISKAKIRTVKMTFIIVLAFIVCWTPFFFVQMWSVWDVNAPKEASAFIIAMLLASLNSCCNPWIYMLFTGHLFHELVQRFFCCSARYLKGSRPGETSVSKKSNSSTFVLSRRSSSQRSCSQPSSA
Kind of experiment: [3H]Oxytocin radioligand binding assay to uterine OT receptors (crude membrane preparation of uteri from DES-treated rats). Conditions: competition at equilibrium, 60 min, 22° C., 1 nM [3H]OT, pH 7.4; Ki = IC50/1+c/Kd, Kd [3H]OT (uterus) 0.7 nM; three to six separate determinations. How it is done: The high affinity binding of [^3 H] […] Competition studies were conducted at equilibrium (60 minutes; 22° C.) using 1 nM[^3 H]OT in the following assay buffer: 50 mM Tris-HCl, 5 mM MgCl2, and 0.1% BSA, pH 7.4.

Molecule `Cc1ccccc1N1CCN(S(=O)(=O)C[C@]23CC[C@H](C[C@@H]2NC(=O)[C@@H](N)CCS(C)(=O)=O)C3(C)C)CC1` [Compound I] displayed an inhibition constant Ki of 7.7 nM.
